Laboratory results from PubChem BioAssay (NCI).
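The compound was tested at five concentrations on cells cultured in 96-well plates, with a 48-hour exposure period. GI50 is the concentration that inhibits growth by half. TGI denotes the concentration required for complete inhibition of growth.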 Peptide text beside a SMILES is read from it. * marks the point of attachment. X26 = Clc1c(Cl)c(Cl)c(O*)c(Cl)c1Cl; Boc = CC(C)(C)OC(=O)*; OBn = c1ccc(CO*)cc1; Bn = c1ccc(C*)cc1

Experiments:
Assay in all cases: NCI-60 cell line screen, 48 h
[1] = system: NCI-H226 lung
[2] = system: SK-MEL-28 melanoma
[3] = system: KM12 colon
[4] = system: SF-268 CNS
[5] = system: IGROV1 ovarian
[6] = system: OVCAR-8 ovarian
[7] = system: HOP-92 NSCLC
[8] = system: 786-0 renal
[9] = system: OVCAR-5 ovarian
[10] = system: CAKI-1 renal
[11] = system: SNB-19 CNS
[12] = system: K-562 leukemia
[13] = system: SK-MEL-2 melanoma
[14] = system: U251 CNS
[15] = system: HL-60(TB) leukemia
[16] = system: TK-10 renal
[17] = system: MDA-MB-435
[18] = system: SK-OV-3 ovarian
[19] = system: M14 melanoma
[20] = system: PC-3 prostate
[21] = system: A498 renal
[22] = system: SK-MEL-5 melanoma
[23] = system: HT29 colon
[24] = system: MDA-N
[25] = system: DU-145 prostate
[26] = system: HCT-116 colon
[27] = system: OVCAR-4 ovarian
[28] = system: UO-31 renal
[29] = system: NCI/ADR-RES ovarian
[30] = system: ACHN renal
[31] = system: RPMI-8226 leukemia
[32] = system: HOP-62 NSCLC
[33] = system: UACC-257 melanoma
[34] = system: HCC-2998 colon
[35] = system: A549 NSCLC
[36] = system: SR leukemia
[37] = system: HCT-15 colon
[38] = system: NCI-H23 lung
[39] = system: EKVX NSCLC
[40] = system: OVCAR-3 ovarian
[41] = system: COLO 205 colon
[42] = system: MALME-3M melanoma
[43] = system: CCRF-CEM leukemia
[44] = system: BT-549 breast
[45] = system: SW-620 colon
[46] = system: SF-539 CNS
[47] = system: MDA-MB-231 breast
[48] = system: HS 578T breast
[49] = system: SF-295 CNS
[50] = system: NCI-H522 lung
[51] = system: RXF 393 renal
[52] = system: UACC-62 melanoma
[53] = system: T-47D breast
[54] = system: SNB-75 CNS
[55] = system: MOLT-4 leukemia
[56] = system: MCF7 breast
[57] = system: NCI-H460 lung
[58] = system: SN12C renal
[59] = system: LOX IMVI melanoma

CN(C)c1ccc(/C=c2/c3ccccc3n3c2cc(-c2ccccc2)[n+]3C)cc1
TGI [1]: 1.07 µM | TGI [2]: 1.87 µM | TGI [3]: 0.694 µM | TGI [4]: 1.08 µM | TGI [5]: 0.819 µM | TGI [6]: 0.567 µM | TGI [7]: 1.01 µM | TGI [8]: 1.34 µM | TGI [9]: 2.19 µM | TGI [10]: 7.65 µM | TGI [11]: 1.28 µM | TGI [12]: > 100 µM | TGI [13]: 0.573 µM | TGI [14]: 1.15 µM | TGI [15]: 0.123 µM | TGI [16]: 4.53 µM | TGI [17]: 1.12 µM | TGI [18]: 2 µM | TGI [19]: 1.44 µM | TGI [20]: 1.04 µM | TGI [21]: 4.38 µM | TGI [22]: 0.38 µM | TGI [23]: 0.908 µM | TGI [24]: 1.22 µM | TGI [25]: 1.92 µM | TGI [26]: 1.32 µM | TGI [27]: 2.1 µM | TGI [28]: 2.35 µM | TGI [29]: > 100 µM | TGI [30]: 2.33 µM | TGI [31]: 0.488 µM | TGI [32]: 1.12 µM | TGI [33]: 1.88 µM | TGI [34]: > 100 µM | TGI [35]: 2.04 µM | TGI [36]: 0.658 µM | TGI [37]: 3.06 µM

COc1ccc(Cl)cc1Nc1nc(C(F)(F)F)ccc1C(=O)NN
GI50 [38]: 9.11 µM | TGI [38]: > 49.5 µM | GI50 [1]: 3.62 µM | TGI [1]: > 100 µM | GI50 [2]: 3.38 µM | TGI [2]: > 100 µM | GI50 [39]: 2.93 µM | TGI [39]: > 100 µM | GI50 [40]: 0.615 µM | TGI [40]: > 24.5 µM | GI50 [3]: 9.08 µM | TGI [3]: > 100 µM | GI50 [41]: 7.76 µM | TGI [41]: > 100 µM | GI50 [42]: 3.21 µM | TGI [42]: 30.2 µM | GI50 [4]: 1.38 µM | TGI [4]: > 100 µM | GI50 [5]: 7.83 µM | TGI [5]: > 85.1 µM | GI50 [6]: 3.43 µM | TGI [6]: > 100 µM | GI50 [7]: 2.56 µM | TGI [7]: 40.1 µM | GI50 [8]: 2.42 µM | TGI [8]: > 25.8 µM | GI50 [9]: 3.81 µM | TGI [9]: > 100 µM | GI50 [43]: 0.319 µM | TGI [43]: 2.86 µM | GI50 [10]: 2.74 µM | TGI [10]: 22.7 µM | GI50 [11]: 8.93 µM | TGI [11]: > 100 µM | GI50 [44]: 2.13 µM | TGI [44]: > 100 µM | GI50 [12]: 3.35 µM | TGI [12]: > 100 µM | GI50 [13]: 2.7 µM | TGI [13]: > 100 µM | GI50 [14]: 2.43 µM | TGI [14]: > 100 µM | GI50 [15]: 2.75 µM | TGI [15]: 18.6 µM | GI50 [45]: 27.9 µM | TGI [45]: > 100 µM | GI50 [16]: 3.81 µM | TGI [16]: > 100 µM | GI50 [46]: 6.52 µM | TGI [46]: > 30.7 µM | GI50 [17]: 9.08 µM | TGI [17]: > 100 µM | GI50 [18]: 3.88 µM | TGI [18]: > 68.1 µM | GI50 [19]: 2.38 µM | TGI [19]: 13 µM | GI50 [20]: 2.84 µM | TGI [20]: > 100 µM | GI50 [21]: 1.51 µM | TGI [21]: 63 µM | GI50 [22]: 5.8 µM | TGI [22]: > 20.4 µM | GI50 [23]: 26.3 µM | TGI [23]: > 100 µM | GI50 [47]: 4.58 µM | TGI [47]: > 100 µM | GI50 [48]: 12.3 µM | TGI [48]: > 100 µM | GI50 [49]: 1.97 µM | TGI [49]: 11.7 µM | GI50 [50]: 4.09 µM | TGI [50]: > 100 µM | GI50 [25]: 2.42 µM | TGI [25]: > 20.2 µM | GI50 [51]: 1.68 µM | TGI [51]: > 21.4 µM | GI50 [26]: 4.76 µM | TGI [26]: > 100 µM | GI50 [27]: 3.21 µM | TGI [27]: > 100 µM | GI50 [28]: 3.97 µM | TGI [28]: > 76.7 µM | GI50 [52]: 4.87 µM | TGI [52]: 53.5 µM | GI50 [53]: 5.06 µM | TGI [53]: > 100 µM | GI50 [29]: 2.3 µM | TGI [29]: > 22.5 µM | GI50 [54]: 16.6 µM | TGI [54]: > 100 µM | GI50 [30]: 2.53 µM | TGI [30]: > 100 µM | GI50 [31]: 1.91 µM | TGI [31]: 13.3 µM | GI50 [32]: 5.78 µM | TGI [32]: > 75.4 µM | GI50 [33]: 3.87 µM | TGI [33]: > 30.2 µM | TGI [34]: 9.82 µM | GI50 [55]: 2.53 µM | TGI [55]: > 24.3 µM | GI50 [56]: 18.7 µM | TGI [56]: > 100 µM | GI50 [57]: 23 µM | TGI [57]: > 100 µM | GI50 [58]: 11.4 µM | TGI [58]: > 100 µM | GI50 [35]: 18.4 µM | TGI [35]: > 100 µM | GI50 [36]: 0.404 µM | TGI [36]: 3.56 µM | GI50 [59]: 2.57 µM | TGI [59]: > 65.4 µM | GI50 [37]: 1.2 µM | TGI [37]: > 100 µM

CC(C)CC(NC(=O)C(CCC(=O)OCc1ccccc1)NC(=O)OC(C)(C)C)C(=O)NC(COCc1ccccc1)C(=O)NC(Cc1ccccc1)C(=O)Oc1c(Cl)c(Cl)c(Cl)c(Cl)c1Cl (stereo unspecified) (Boc-E(OBn)LS(Bn)F-X26; configuration not given here)
TGI [38]: 34.2 µM | TGI [2]: 56.4 µM | TGI [39]: 96.2 µM | TGI [3]: 47.1 µM | TGI [41]: 58.5 µM | TGI [42]: 91.5 µM | TGI [4]: > 100 µM | TGI [5]: 56.3 µM | TGI [6]: 65.5 µM | TGI [7]: 43.8 µM | TGI [8]: 90.7 µM | TGI [9]: 56.7 µM | TGI [43]: 74.7 µM | TGI [10]: 48.4 µM | TGI [11]: 83 µM | TGI [13]: 69 µM | TGI [14]: 43.7 µM | TGI [45]: > 100 µM | TGI [16]: 72.1 µM | TGI [17]: 95.3 µM | TGI [18]: 83.8 µM | TGI [19]: 78 µM | TGI [20]: > 100 µM | TGI [22]: 40.9 µM | TGI [23]: > 100 µM | TGI [47]: 34.5 µM | TGI [48]: 65.9 µM | TGI [49]: 68.1 µM | TGI [50]: 51.4 µM | TGI [24]: 48.6 µM | TGI [25]: > 100 µM | TGI [51]: 63.8 µM | TGI [26]: 31.6 µM | TGI [27]: > 100 µM | TGI [28]: 50.2 µM | TGI [52]: 44.4 µM | TGI [29]: 86.8 µM | TGI [54]: > 100 µM | TGI [30]: 57.8 µM | TGI [31]: 76.6 µM | TGI [33]: 66.3 µM | TGI [55]: 54.1 µM | TGI [56]: 66.3 µM | TGI [57]: 59.8 µM | TGI [58]: 90.5 µM | TGI [35]: 96 µM | TGI [36]: 97.9 µM | TGI [59]: > 100 µM | TGI [37]: 51 µM
